Some test systems named below: ACHN; CAKI-1; EKVX; HCT-116; HCT-15; M14; MOLT-4; Malme-3M; NCI-H226; NCI-H23; NCI-H460; OVCAR-4; OVCAR-8; SF-268; SF-295; SK-MEL-28; SK-OV-3; U-251; UACC-62; UO-31.
Holding throughout (test): NCI anticancer screen, dose series, 48 h

SMILES strings stand for the structures.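 Five concentrations, 48 hours, 96-well plates. Abbreviation: GI50, concentration required for 50% inhibition of growth.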 Activity calls are given as the source filed them. Cut-off read from the data, not from the text of the source: active = GI50 up to about 1.1 µM and inactive = higher. Where only a bound is given, the exact number is not on record here.

On to `CC1=NN(C(=O)c2ccc(Cl)cc2)C(=O)C1/N=N/c1ccc(S(=O)(=O)Nc2ncccn2)cc1` (stereo not given), for which the GI50 with ACHN is > 100 µM (inactive); in the assay on CAKI-1, > 100 µM (inactive); in the assay with EKVX, > 100 µM (inactive); in the assay with HCT-116, > 100 µM (inactive); with HCT-15, > 100 µM; in the assay with M14 it was > 100 µM (inactive). Besides, the GI50 in the assay with MOLT-4, in the assay on Malme-3M, in the assay with NCI-H226, in the assay with NCI-H23, in the assay with NCI-H460 and with OVCAR-4 was > 100 µM (inactive) throughout. In addition, the GI50 with OVCAR-8, in the assay with SF-268, in the assay with SF-295, in the assay on SK-MEL-28, with SK-OV-3 and in the assay on U-251 was > 100 µM (inactive) in each case. Also, the GI50 with UACC-62 and in the assay on UO-31 was > 100 µM (inactive) in each case.

The values above are taken from ChEMBL document CHEMBL1201862, “PubChem BioAssay data set” (2004).
